# Assay results published in ChEMBL document CHEMBL4842362, “From virtual screening hits targeting a cryptic pocket in BACE-1 to a nontoxic brain permeable multitarget anti-Alzheimer lead with disease-modifying and cognition-enhancing effects” (Eur J Med Chem, 2021).
# Activity calls are given as the source filed them. The calls are words filed in the database; no cut-off is given here.
# Columns and labels:
# [1] = system: Mus musculus; assay: Modulation of oxidative stress in SAMP8 mouse assessed as increase in cox-2 gene expression in hippocampus tissue at 2 mg/kg, po measured after 4 weeks by RT-PCR analysis; assay type: functional, organism-based
# [2] = Acute toxicity in zebra fish embryos assessed as lethality measured every 24 hrs for 72 hrs; parameters: species or system Danio rerio; conditions: zebrafish
# [3] = molecular target: Beta-secretase 1 (Homo sapiens, UniProt P56817); assay: Inhibition of human recombinant BACE-1 expressed in Escherichia coli using panvera peptide as a substrate incubated for 1 hr by fluorescence analysis
# [4] = molecular target: T1, Acetylcholinesterase (Homo sapiens, UniProt P22303); assay: Potency index, ratio of donepezil IC50 to test compound IC50 for inhibition of human recombinant AChE using acetylthiocholine iodide as a substrate preincubated for 20 mins followed by substrate addition by spectrophotometric analysis
# [5] = system: Mus musculus; assay: In vivo inhibition of BACE-1 in hippocampal tissue of SAMP8 mouse assessed as increase in sAPP alpha levels at 2 mg/kg, po measured after 4 weeks by western blot analysis; assay type: functional, organism-based; conditions: Hippocampus
# [6] = Permeability of the compound in PBS/EtOH by PAMPA-BBB assay; assay type: ADME; conditions: read-out: permeability
# [7] = Kinetic solubility of the compound in DMSO/PBS buffer measured after 2 hrs by nephalometric analysis; assay type: physicochemical; conditions: DMSO/PBS buffer, read-out: Kinetic_solubility
# [8] = Toxicity in SAMP8 mouse assessed as toxic effects at 2 mg/kg, po for 4 weeks; assay type: organism-based; conditions: in vivo, 672 h
# [9] = system: Mus musculus; assay: Cognitive enhancing effect in SAMP8 mouse assessed as improvement of long term retrieval by measuring discrimination index at 2 mg/kg, po administered for 4 weeks followed by 10 mins acquisition trail and measured after 24 hrs by novel object recognition test; assay type: functional, organism-based
# [10] = system: Mus musculus; assay: Effect on neuroinflammation in SAMP8 mouse assessed as reduction in Cxcl10 gene expression hippocampus tissue at 2 mg/kg, po measured after 4 weeks by RT-PCR analysis; assay type: functional, organism-based
# [11] = system: HT-22; assay: Neuroprotective activity against glutamate induced neuronal death in mouse HT-22 cells assessed as increase in cell viability at 1 to 25 uM by MTT assay; assay type: functional, cell-based; conditions: dose 1-25 µM
# [12] = molecular target: T2, Cholinesterase (Homo sapiens, UniProt P06276); assay: Potency index, ratio of huprine-Y IC50 to test compound IC50 for inhibition of human serum BChE using butyrylthiocholine iodide as a substrate preincubated for 20 mins followed by substrate addition by spectrophotometric analysis; assay type: cell-free
# [13] = molecular target: T1, Acetylcholinesterase; assay: Potency index, ratio of rhein-huprine hybrid IC50 to test compound IC50 for inhibition of human recombinant AChE using acetylthiocholine iodide as a substrate preincubated for 20 mins followed by substrate addition by spectrophotometric analysis
# [14] = system: Mus musculus; assay: Effect on neuroinflammation in SAMP8 mouse assessed as decrease in IL-6 gene expression hippocampus tissue at 2 mg/kg, po measured after 4 weeks by RT-PCR analysis; assay type: functional, organism-based
# [15] = system: Mus musculus; assay: In vivo inhibition of GSK3 beta in SAMP8 mouse assessed as reduction in tau phosphorylation at Ser 404 residue at 2 mg/kg, po measured after 4 weeks by western blot analysis; assay type: functional, organism-based
# [16] = system: Mus musculus; assay: Effect on synaptic plasticity in SAMP8 mouse assessed as increase in PSD95 protein levels in hippocampus tissue at 2 mg/kg, po measured after 4 weeks by western blot analysis; assay type: functional, organism-based
# [17] = molecular target: T2, Cholinesterase; assay: Potency index, ratio of donepezil IC50 to test compound IC50 for inhibition of human serum BChE using butyrylthiocholine iodide as a substrate preincubated for 20 mins followed by substrate addition by spectrophotometric analysis; assay type: cell-free
# [18] = system: Mus musculus; assay: Effect on synaptic plasticity in SAMP8 mouse assessed as increase in SYN protein levels in hippocampus tissue at 2 mg/kg, po measured after 4 weeks by western blot analysis; assay type: functional, organism-based
# [19] = Neurotoxicity in mouse HT-22 cells assessed as decrease in cell viability at up to 25 uM by MTT assay; assay type: cell-based
# [20] = molecular target: Microtubule-associated protein tau (Homo sapiens) (UniProt P10636); assay: Inhibition of tau aggregation (unknown origin) in Escherichia coli BL21 (DE3) at 10 uM incubated overnight by thioflavin S based fluorescence analysis relative to control
# [21] = molecular target: T1, Acetylcholinesterase
# Description: Inhibition of human recombinant AChE using acetylthiocholine iodide as a substrate preincubated for 20 mins followed by substrate addition by spectrophotometric analysis
# [22] = molecular target: Amyloid-beta precursor protein (Homo sapiens) (UniProt P05067); assay: Inhibition of amyloid beta (1 to 42) (unknown origin) aggregation in Escherichia coli BL21 (DE3) at 10 uM incubated overnight by thioflavin S based fluorescence analysis relative to control
# [23] = system: Mus musculus; assay: In vivo inhibition of BACE-1 in hippocampal tissue of SAMP8 mouse assessed as reduction in sAPPbeta levels at 2 mg/kg, po measured after 4 weeks by Western blot analysis; assay type: functional, organism-based; conditions: Hippocampus
# [24] = molecular target: T2, Cholinesterase; assay: Potency index, ratio of rhein-huprine hybrid IC50 to test compound IC50 for inhibition of human serum BChE using butyrylthiocholine iodide as a substrate preincubated for 20 mins followed by substrate addition by spectrophotometric analysis; assay type: cell-free
# [25] = system: Mus musculus; assay: Effect on amyloid pathology in hippocampal tissue of SAMP8 mouse assessed as increase in neprilysin (Nep) gene expression at 2 mg/kg, po measured after 4 weeks by RT-PCR analysis; assay type: functional, organism-based
# [26] = system: Mus musculus; assay: Cognitive enhancing effect in SAMP8 mouse assessed as reversal of spatial memory impairment by measuring discrimination index at 2 mg/kg, po administered for 4 weeks by object location test; assay type: functional, organism-based
# [27] = Antioxidant activity assessed as free radical scavenging activity at 500 uM incubated for 30 mins under dark condition by DPPH assay; assay type: functional
# [28] = Toxicity in SAMP8 mouse assessed as mortality at 2 mg/kg, po for 4 weeks; assay type: organism-based; conditions: in vivo, 672 h
# [29] = system: Mus musculus; assay: Effect on amyloid pathology in hippocampal tissue of SAMP8 mouse assessed as increase in Adam10 gene expression at 2 mg/kg, po measured after 4 weeks by RT-PCR analysis; assay type: functional, organism-based
# [30] = system: Mus musculus; assay: Effect on amyloid pathology in hippocampal tissue of SAMP8 mouse assessed as decrease in Bace-1 gene expression at 2 mg/kg, po measured after 4 weeks by RT-PCR analysis; assay type: functional, organism-based
# [31] = system: Mus musculus; assay: Modulation of oxidative stress in SAMP8 mouse assessed as increase in heme oxygenase 1 (Hmox1) gene expression in hippocampus tissue at 2 mg/kg, po measured after 4 weeks by RT-PCR analysis; assay type: functional, organism-based
# [32] = molecular target: T2, Cholinesterase
# Description: Inhibition of human serum BChE using butyrylthiocholine iodide as a substrate preincubated for 20 mins followed by substrate addition by spectrophotometric analysis
# [33] = system: Mus musculus; assay: Cognitive enhancing effect in SAMP8 mouse assessed as improvement of short term retrieval by measuring discrimination index at 2 mg/kg, po administered for 4 weeks followed by 10 mins acquisition trail and measured after 2 hrs by novel object recognition test; assay type: functional, organism-based
# [34] = system: Mus musculus; assay: Effect on amyloid pathology in hippocampal tissue of SAMP8 mouse assessed as increase in insulin-degrading enzyme (Ide) gene expression at 2 mg/kg, po measured after 4 weeks by RT-PCR analysis; assay type: functional, organism-based
# [35] = system: Mus musculus; assay: Effect on neuroinflammation in SAMP8 mouse assessed as decrease in TNF-alpha gene expression hippocampus tissue at 2 mg/kg, po measured after 4 weeks by RT-PCR analysis; assay type: functional, organism-based
# [36] = system: Mus musculus; assay: Effect on neuroinflammation in SAMP8 mouse assessed as decrease in IL-1 beta gene expression hippocampus tissue at 2 mg/kg, po measured after 4 weeks by RT-PCR analysis; assay type: functional, organism-based
# T1 sequence (P22303 whole entry): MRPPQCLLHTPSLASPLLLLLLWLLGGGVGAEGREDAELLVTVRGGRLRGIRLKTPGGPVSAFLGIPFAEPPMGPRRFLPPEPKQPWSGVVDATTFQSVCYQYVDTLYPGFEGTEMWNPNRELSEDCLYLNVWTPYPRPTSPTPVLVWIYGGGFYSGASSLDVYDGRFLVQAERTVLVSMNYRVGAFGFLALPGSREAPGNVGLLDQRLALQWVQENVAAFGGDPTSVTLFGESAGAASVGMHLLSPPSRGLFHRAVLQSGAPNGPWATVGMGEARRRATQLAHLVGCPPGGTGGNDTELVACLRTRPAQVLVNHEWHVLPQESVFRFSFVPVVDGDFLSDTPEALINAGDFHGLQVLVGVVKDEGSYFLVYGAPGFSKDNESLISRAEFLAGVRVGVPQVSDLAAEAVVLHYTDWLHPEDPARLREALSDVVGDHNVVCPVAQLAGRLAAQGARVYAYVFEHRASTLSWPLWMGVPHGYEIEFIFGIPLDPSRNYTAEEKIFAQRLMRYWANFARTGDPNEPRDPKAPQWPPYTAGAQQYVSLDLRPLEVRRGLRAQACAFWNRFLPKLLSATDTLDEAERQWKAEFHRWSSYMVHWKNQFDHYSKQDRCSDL
# T2 sequence (P06276 whole entry): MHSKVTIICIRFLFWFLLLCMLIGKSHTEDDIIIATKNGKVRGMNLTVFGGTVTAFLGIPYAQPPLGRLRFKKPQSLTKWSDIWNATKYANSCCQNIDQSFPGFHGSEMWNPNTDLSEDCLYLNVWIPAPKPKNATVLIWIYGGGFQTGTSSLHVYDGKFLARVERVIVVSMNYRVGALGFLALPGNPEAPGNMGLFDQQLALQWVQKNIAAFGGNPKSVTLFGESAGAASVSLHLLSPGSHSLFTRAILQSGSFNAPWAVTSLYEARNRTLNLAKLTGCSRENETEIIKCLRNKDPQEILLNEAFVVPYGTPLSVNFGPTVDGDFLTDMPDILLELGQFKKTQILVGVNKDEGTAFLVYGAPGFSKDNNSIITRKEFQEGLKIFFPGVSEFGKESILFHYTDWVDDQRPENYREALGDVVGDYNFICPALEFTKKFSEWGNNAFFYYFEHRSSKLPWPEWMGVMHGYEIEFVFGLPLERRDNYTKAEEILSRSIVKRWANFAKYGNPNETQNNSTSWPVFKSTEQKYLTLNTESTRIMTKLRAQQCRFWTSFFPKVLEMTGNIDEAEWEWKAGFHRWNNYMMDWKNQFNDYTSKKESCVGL
# Chain of Beta-secretase 1 (P56817 whole entry): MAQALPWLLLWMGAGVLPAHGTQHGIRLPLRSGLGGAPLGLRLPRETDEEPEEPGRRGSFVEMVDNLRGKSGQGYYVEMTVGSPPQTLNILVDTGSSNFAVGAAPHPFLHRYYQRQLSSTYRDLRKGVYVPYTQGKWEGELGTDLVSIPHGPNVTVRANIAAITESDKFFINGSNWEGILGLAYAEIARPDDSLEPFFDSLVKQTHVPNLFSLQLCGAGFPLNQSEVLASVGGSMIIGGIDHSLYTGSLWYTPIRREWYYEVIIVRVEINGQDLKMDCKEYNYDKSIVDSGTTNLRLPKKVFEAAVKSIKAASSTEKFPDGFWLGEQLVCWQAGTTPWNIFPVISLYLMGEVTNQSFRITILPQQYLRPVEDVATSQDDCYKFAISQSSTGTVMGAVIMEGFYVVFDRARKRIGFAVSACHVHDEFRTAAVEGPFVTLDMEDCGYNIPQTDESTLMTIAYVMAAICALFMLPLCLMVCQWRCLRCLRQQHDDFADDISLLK
# Chain of Amyloid-beta precursor protein (Homo sapiens) (P05067 whole entry): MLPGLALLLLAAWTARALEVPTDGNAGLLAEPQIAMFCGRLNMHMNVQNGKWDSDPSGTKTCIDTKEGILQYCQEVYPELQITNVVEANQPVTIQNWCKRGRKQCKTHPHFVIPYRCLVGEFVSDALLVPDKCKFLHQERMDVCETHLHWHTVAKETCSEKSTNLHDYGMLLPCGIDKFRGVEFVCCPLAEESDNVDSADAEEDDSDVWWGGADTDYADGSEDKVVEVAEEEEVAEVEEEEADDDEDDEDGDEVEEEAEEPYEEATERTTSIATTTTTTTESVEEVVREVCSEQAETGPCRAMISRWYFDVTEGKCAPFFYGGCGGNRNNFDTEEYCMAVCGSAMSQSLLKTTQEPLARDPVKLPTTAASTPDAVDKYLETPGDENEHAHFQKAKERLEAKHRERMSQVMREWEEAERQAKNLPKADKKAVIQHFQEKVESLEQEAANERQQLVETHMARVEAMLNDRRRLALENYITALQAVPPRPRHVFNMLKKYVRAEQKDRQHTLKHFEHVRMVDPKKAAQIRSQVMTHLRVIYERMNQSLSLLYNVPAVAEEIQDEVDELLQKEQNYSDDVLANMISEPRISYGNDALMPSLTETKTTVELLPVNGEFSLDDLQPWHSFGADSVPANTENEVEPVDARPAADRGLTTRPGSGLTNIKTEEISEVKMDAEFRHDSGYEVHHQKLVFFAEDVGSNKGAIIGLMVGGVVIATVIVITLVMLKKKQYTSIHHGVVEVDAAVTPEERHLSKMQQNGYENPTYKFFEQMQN
# Chain of Microtubule-associated protein tau (Homo sapiens) (P10636 whole entry): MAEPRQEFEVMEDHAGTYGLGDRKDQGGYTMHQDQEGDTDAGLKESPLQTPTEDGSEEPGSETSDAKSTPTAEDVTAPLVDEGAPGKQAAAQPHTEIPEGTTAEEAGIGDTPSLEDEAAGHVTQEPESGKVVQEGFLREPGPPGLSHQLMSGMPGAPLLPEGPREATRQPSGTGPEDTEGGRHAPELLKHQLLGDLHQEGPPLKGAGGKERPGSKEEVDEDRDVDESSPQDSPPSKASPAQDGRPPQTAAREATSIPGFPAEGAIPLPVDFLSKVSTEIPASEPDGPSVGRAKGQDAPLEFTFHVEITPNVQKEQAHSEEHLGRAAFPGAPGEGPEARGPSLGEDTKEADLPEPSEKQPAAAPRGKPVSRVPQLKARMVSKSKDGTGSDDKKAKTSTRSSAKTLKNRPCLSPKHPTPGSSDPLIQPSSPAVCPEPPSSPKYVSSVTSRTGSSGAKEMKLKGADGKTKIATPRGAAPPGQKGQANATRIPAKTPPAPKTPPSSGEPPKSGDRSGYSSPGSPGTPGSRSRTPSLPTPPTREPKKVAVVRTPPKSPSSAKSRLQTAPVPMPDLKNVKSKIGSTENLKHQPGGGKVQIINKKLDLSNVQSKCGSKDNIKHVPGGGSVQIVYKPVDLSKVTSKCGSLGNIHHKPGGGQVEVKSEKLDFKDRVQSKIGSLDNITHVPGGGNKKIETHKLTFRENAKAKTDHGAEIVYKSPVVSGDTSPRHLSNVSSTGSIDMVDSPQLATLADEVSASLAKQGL
smiles,measurement,setting,value
CC1=CC2Cc3nc4cc(Cl)ccc4c(NCCCCCCCCCNC(=O)c4cc(O)cc(O)c4)c3C(C1)C2 (stereo unspecified),Activity,[1],inactive
same,LC50 at 72 h,[2],> 100 µM
same,IC50,[3],2710 nM
same,Ratio IC50,[4],< 65
same,Activity,[5],Active
same,Papp,[6],9.4 ×10⁻⁶ cm/s
same,solubility kinetic at 2 h,[7],10.8 µg/mL
same,Activity,[8],Non-Toxic
same,Activity,[9],Active
same,Activity,[10],Active
same,Activity,[11],inactive
same,Ratio IC50,[12],2
same,Ratio IC50,[13],< 9
same,Activity,[14],Active
same,inhibition,[15],Active
same,Activity,[16],Active
same,Ratio IC50,[17],79
same,Activity,[18],Active
same,Activity,[19],Non-Toxic
same,inhibition,[20],65.8%
same,IC50,[21],2.57 nM
same,inhibition,[22],49.5%
same,Activity,[23],Active
same,Ratio IC50,[24],7
same,Activity,[25],Active
same,Activity,[26],Active
same,Activity,[27],inactive
same,Activity,[28],Non-Toxic
same,Activity,[29],Active
same,Activity,[30],Active
same,Activity,[31],Active
same,IC50,[32],43 nM
same,Activity,[33],Active
same,Activity,[34],inactive
same,Activity,[35],Active
same,Activity,[36],Active
